Consider 22 compounds from US9365522B2, “Pyrazole amide derivative” (AMGEN INC., priority 2015, dated 2016).

Structures are written as SMILES.

The experiment deals with T1, ligand binding domain of human ROR gamma (Homo sapiens, UniProt P51449).
T1 construct: NM_001001523; expressed in transfected cells; host or cells: HEK293T
T1 sequence (P51449 247-497 isoform P51449-2): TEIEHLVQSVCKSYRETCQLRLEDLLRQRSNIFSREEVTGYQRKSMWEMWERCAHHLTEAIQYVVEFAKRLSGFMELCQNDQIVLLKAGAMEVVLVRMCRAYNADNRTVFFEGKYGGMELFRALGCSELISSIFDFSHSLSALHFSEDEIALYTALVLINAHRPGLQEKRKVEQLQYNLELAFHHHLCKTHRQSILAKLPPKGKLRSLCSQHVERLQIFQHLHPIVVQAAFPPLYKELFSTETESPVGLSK
Briefly: ROR gamma reporter gene assay (GAL4-RORγ LBD luciferase, Dual-Glo). In kind it is cell-based. The following applies: HEK293T cells transfected with pM-ROR gamma, 8 concentrations 3.5 nM to 10.5 μM, 24 h incubation; read-out: result (pIC50, inhibition of RORγ transcriptional activity) (converted). Put shortly:
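First, HEK293T cells are transfected with the GAL4–RORγ LBD construct, a 5×UAS luciferase reporter and a constitutive renilla control. Next, test compounds are added over eight concentrations (3.5 nM to 10.5 μM). After 24 h at 37 °C, Dual-Glo luminescence is measured and pIC50 fitted.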
(Reporter assays use an easily measured gene product as a stand-in for the process of interest.)
On to `CC(C)(C)OCCN(CC(=O)c1c(Cl)cncc1Cl)C(=O)c1cnn([C@H]2CC[C@H](C(=O)O)CC2)c1C(F)(F)F` [Example 95, trans-(4((2-(3,5-dichloropyridin-4-yl)-2-oxoethyl)-(2-((2-methylpropan-2-yl)oxy)ethyl)carbamoyl)-5-(trifluoromethyl)pyrazol-1-yl)cyclohexane-1-carboxylic acid], for which the IC50 is 151000 pM. On to `O=C(c1cnn([C@H]2CC[C@H](C(=O)O)CC2)c1C(F)(F)F)N(Cc1ccc(F)cc1)CC(F)(F)c1c(Cl)cccc1Cl` [Example 96, trans-4-(4-((2-(2,6-dichlorophenyl)-2,2-difluoroethyl)-((4-fluorophenyl)methyl)carbamoyl)-5-(trifluoromethyl)pyrazol-1-yl)cyclohexane-1-carboxylic acid], for which the IC50 was 28800 pM.

`NC(=O)c1cc(Cl)c(C(=O)CN(Cc2cc(F)cc(F)c2)C(=O)c2cnn([C@H]3CC[C@H](C(=O)O)CC3)c2C(F)(F)F)c(Cl)c1` [Example 97, trans-4-(4-((2-(4-carbamoyl-2,6-dichlorophenyl)-2-oxoethyl)-((3,5 difluorophenyl)methyl)carbamoyl)-5-(trifluoromethyl)pyrazol-1-yl)cyclohexane-1-carboxylic acid]: the IC50 is 282000 pM.

For the compound `O=C(O)c1cc(Cl)c(C(=O)CN(Cc2cc(F)cc(F)c2)C(=O)c2cnn([C@H]3CC[C@H](C(=O)O)CC3)c2C(F)(F)F)c(Cl)c1` [Example 98, trans-4-(2-((1-(4-carboxycyclohexyl)-5-(trifluoromethyl)pyrazole-4-carbonyl)-((3,5-difluorophenyl)methyl)amino)acetyl)-3,5-dichlorobenzoic acid], the IC50 is above 1e+07 pM. Regarding `O=C(CN(Cc1cc(F)cc(F)c1)C(=O)c1cnn([C@H]2CC[C@H](C(=O)O)CC2)c1C(F)(F)F)c1ccccc1Cl` [Example 99, trans-4-(4-((2-(2-chlorophenyl)-2-oxoethyl)-((3,5-difluorophenyl)methyl)carbamoyl)-5-(trifluoromethyl)pyrazol-1-yl)cyclohexane-1-carboxylic acid], the IC50 was 105000 pM.

On to `CC(CN(Cc1ccc(F)cc1)C(=O)c1cnn([C@H]2CC[C@H](C(=O)O)CC2)c1C(F)(F)F)c1c(Cl)cccc1Cl` (stereo partly drawn) [Example 100, trans-4-(4-(2-(2,6-dichlorophenyl)propyl-((4-fluorophenyl)methyl)carbamoyl)-5-(trifluoromethyl)pyrazol-1-yl)cyclohexane-1-carboxylic acid], for which the IC50 was 234000 pM. The same measure for `O=C(CN(CC1CCC(F)(F)CC1)C(=O)c1cnn([C@H]2CC[C@H](C(=O)O)CC2)c1C(F)(F)F)c1c(Cl)cncc1Cl` [Example 101, trans-4-(4-((2-(3,5-dichloropyridin-4-yl)-2-oxoethyl)-((4,4-difluorocylohexyl)methyl)carbamoyl)-5-(trifluoromethyl)pyrazol-1-yl)cyclohexane-1-carboxylic acid]: 87100 pM; for `CC1(CN(CC(=O)c2c(Cl)cncc2Cl)C(=O)c2cnn([C@H]3CC[C@H](C(=O)O)CC3)c2C(F)(F)F)CCCCC1` [Example 102, trans-4-(4-((2-(3,5-dichloropyridin-4-yl)-2-oxoethyl)-((1-methylcyclohexyl)methyl)carbamoyl)-5-(trifluoromethyl)pyrazol-1-yl)cyclohexane-1-carboxylic acid]: 74100 pM.

For `O=C(CN(Cc1ccccn1)C(=O)c1cnn([C@H]2CC[C@H](C(=O)O)CC2)c1C(F)(F)F)c1c(Cl)cncc1Cl` [Example 103, trans-4-(4-((2-(3,5-dichloropyridin-4-yl)-2-oxoethyl)-(pyridin-2-ylmethyl)carbamoyl)-5-(trifluorornethyl)pyrazol-1-yl)cyclohexane-1-carboxylic acid], the IC50 was 1.91e+06 pM.

As for `O=C(CN(Cc1cccnc1)C(=O)c1cnn([C@H]2CC[C@H](C(=O)O)CC2)c1C(F)(F)F)c1c(Cl)cncc1Cl` [Example 104, trans-4-(4-((2-(3,5-dichloropyridin-4-yl)-2-oxoethyl)-(pyridin-3-ylmethyl)carbamoyl)-5-(trifluorornethyl)pyrazol-1-yl)cyclohexane-1-carboxylic acid], the IC50 is 2.04e+06 pM. The same measure for `O=C(CN(Cc1ccc(F)cc1)C(=O)c1cnn([C@H]2CC[C@](O)(C(=O)O)CC2)c1C(F)(F)F)c1c(Cl)cncc1Cl` [Example 105, cis-4-(4-((2-(3,5-dichloropyridin-4-yl)-2-oxoethyl)-((4-fluorophenyl)methyl)carbamoyl)-5-(trifluoromethyl)pyrazol-1-yl)-1-hydroxycyclohexane-1-carboxylic acid]: 204000 pM; for `O=C(CN(Cc1ccc(F)cc1)C(=O)c1cnn([C@H]2CC[C@@](O)(C(=O)O)CC2)c1C(F)(F)F)c1c(Cl)cncc1Cl` [Example 106, trans-4-(4-((2-(3,5-dichloropyridin-4-yl)-2-oxoethyl)-((4-fluorophenyl)methyl)carbamoyl)-5-(trifluoromethyl)pyrazol-1-yl)-1-hydroxycyclohexane-1-carboxylic acid]: 380000 pM; for `O=C(CN(Cc1cc(F)cc(F)c1)C(=O)c1cnn([C@H]2CC[C@H](C(=O)O)CC2)c1C(F)(F)F)c1cc(Cl)ccc1Cl` [Example 107, trans-4-(4-((2-(2,5-dichlorophenyl)-2-oxoethyl)-((3,5-difluorophenyl)methyl)carbamoyl)-5-(trifluoromethyl)pyrazol-1-yl)cyclohexane-1-carboxylic acid]: 2.82e+06 pM. Next, `CC(CN(Cc1cc(F)cc(F)c1)C(=O)c1cnn([C@H]2CC[C@H](C(=O)O)CC2)c1C(F)(F)F)c1c(Cl)cccc1Cl` (stereo partly drawn) [Example 108, trans-4-(4-(2-(2,6-dichlorophenyl)propyl-((3,5-difluorophenyl)methyl)carbamoyl)-5-(trifluoromethyl)pyrazol-1-yl)cyclohexane-1-carboxylic acid]: 324000 pM; `COC(CN(Cc1cc(F)cc(F)c1)C(=O)c1cnn([C@H]2CC[C@H](C(=O)O)CC2)c1C(F)(F)F)c1c(Cl)cncc1Cl` (stereo partly drawn) [Example 109, trans-4-(4-((2-(3,5-dichloropyridin-4-yl)-2-methoxyethyl)-((3,5-difluorophenyl)methyl)carbamoyl)-5-(trifluoromethyl)pyrazol-1-yl)cyclohexane-1-carboxylic acid]: 631000 pM. Turning to `CC(C)(C)C#CCN(CC(=O)c1c(Cl)cncc1Cl)C(=O)c1cnn([C@H]2CC[C@H](C(=O)O)CC2)c1C(F)(F)F` [Example 110, trans-4-(4-((2-(3,5-dichloropyridin-4-yl)-2-oxoethyl)-(4,4-dimethylpent-2-ynyl)carbamoyl)-5-(trifluoromethyl)pyrazol-1-yl)cyclohexane-1-carboxylic acid], the IC50 was 162000 pM. The same measure for `COc1cccc(OC)c1C(=O)CN(Cc1cc(F)cc(F)c1)C(=O)c1cnn([C@H]2CC[C@H](C(=O)O)CC2)c1C(F)(F)F` [Example 111, trans-4-(4-((3,5-difluorophenyl)methyl-(2-(2,6-dimethoxyphenyl)-2-oxoethyl)carbamoyl)-5-(trifluoromethyl)pyrazol-1-yl)cyclohexane-1-carboxylic acid]: 355000 pM. The same measure for `COc1cc(Cl)cc(Cl)c1C(=O)CN(Cc1cc(F)cc(F)c1)C(=O)c1cnn([C@H]2CC[C@H](C(=O)O)CC2)c1C(F)(F)F` [Example 112, trans-4-(4-((2-(2,4-dichloro-6-methoxyphenyl)-2-oxoethyl)-((3,5-difluorophenyl)methyl)carbamoyl)-5-(trifluoromethyl)pyrazol-1-yl)cyclohexane-1-carboxylic acid]: 61700 pM. As to `O=C(CN(Cc1cc(F)cc(F)c1)C(=O)c1cnn([C@H]2CC[C@H](C(=O)O)CC2)c1C(F)(F)F)C1CCCC1` [Example 113, trans-4-(4-((2-cyclopentyl-2-oxoethyl)-((3,5-difluorophenyl)methyl)carbamoyl)-5-(trifluoromethyl)pyrazol-1-yl)cyclohexane-1-carboxylic acid], the IC50 was 4.57e+06 pM.

Take `C[C@H](N(CC(=O)c1c(Cl)cncc1Cl)C(=O)c1cnn([C@H]2CC[C@H](C(=O)O)CC2)c1C(F)(F)F)C(C)(C)C` [Example 114, trans-4-(4-((2-(3,5-dichloropyridin-4-yl)-2-oxoethyl)-((2S)-3,3-dimethylbutan-2-yl)carbamoyl)-5-(trifluoromethyl)pyrazol-1-yl)cyclohexane-1-carboxylic acid]: the IC50 is 2.29e+06 pM. As to `C[C@@H](N(CC(=O)c1c(Cl)cncc1Cl)C(=O)c1cnn([C@H]2CC[C@H](C(=O)O)CC2)c1C(F)(F)F)C(C)(C)C` [Example 115, trans-4-(4-((2-(3,5-dichloropyridin-4-yl)-2-oxoethyl)-((2R)-3,3-dimethylbutan-2-yl)carbamoyl)-5-(trifluoromethyl)pyrazol-1-yl)cyclohexane-1-carboxylic acid], the IC50 is 158000 pM. The same measure for `N[C@]1(C(=O)O)CC[C@@H](n2ncc(C(=O)N(CC(=O)c3c(Cl)cncc3Cl)Cc3ccc(F)cc3)c2C(F)(F)F)CC1` [Example 116, cis-4-(4-((2-(3,5-dichloropyridin-4-yl)-2-oxoethyl)-((4-fluorophenyl)methyl)carbamoyl)-5-(trifluoromethyl)pyrazol-1-yl)-1-aminocyclohexane-1-carboxylic acid]: above 1e+07 pM.
